Measured values as given in patent publication US7132425B2, “5-substituted-six-membered heteroaromatic glucokinase activators” (Hoffmann-La Roche Inc., priority 2002, dated 2006).

Legend:
C57BL/6J mice = assay: Glucokinase activator in vivo screen (blood glucose after oral dosing); conditions: oral gavage 50 mg/kg after two hour fast, readings 1, 2, 4 and 6 hours post dose, p≦0.05 for two consecutive assay time points
Protocol: Glucokinase Activator in vivo Screen Protocol: C57BL/6J mice are orally dosed via gavage with Glucokinase (GK) activator at 50 mg/kg body weight following a two hour fasting period. Blood glucose determinations are made five times during the six hour post-dose study period.
Mice (n=6) are weighed and fasted for a two hour period prior to oral treatment.

Compound | melting point [°C] | decrease in blood glucose compared to vehicle (C57BL/6J mice)
CN(C)c1ccc(NC(=O)[C@H](CC2CCCC2)c2ccc(S(C)(=O)=O)c(Cl)c2)nc1 [Example 14, 2(R)-(3-Chloro-4-methanesulfonyl-phenyl)-3-cyclopentyl-N-(5-dimethylamino-pyridin-2-yl)-propionamide] | 166.2 | statistically significant (p≦0.05) decrease in blood glucose
C/C(=N/O)c1cnc(NC(=O)[C@H](CC2CCCC2)c2ccc(S(C)(=O)=O)cc2)cn1 [Example 34, 3-Cyclopentyl-N-[5-(1-hydroxyimino-ethyl)-pyrazin-2-yl]-2(R)-(4-methanesulfonyl-phenyl)-propionamide] | 118.8 to 122.4 | statistically significant (p≦0.05) decrease in blood glucose
CS(=O)(=O)c1ccc([C@@H](CC2CCCC2)C(=O)Nc2cnc(/C(N)=N\O)cn2)cc1Cl [Example 1, 2(R)-(3-Chloro-4-methanesulfonyl-phenyl)-3-cyclopentyl-N-[5-(N-hydroxycarbamimidoyl)-pyrazin-2-yl]-propionamide] | 117 to 121 | statistically significant (p≦0.05) decrease in blood glucose

More lines, main results first:

melting point [°C] | Compound | decrease in blood glucose compared to vehicle (C57BL/6J mice)
97 to 99 | CS(=O)(=O)c1ccc([C@@H](CC2CCCC2)C(=O)Nc2cnc(-c3cccs3)cn2)cc1Cl [Example 76, 2(R)-(3-Chloro-4-methanesulfonyl-phenyl)-3-cyclopentyl-N-(5-thiophen-2-yl-pyrazin-2-yl)-propionamide] | statistically significant (p≦0.05) decrease in blood glucose
262 to 264 | CS(=O)(=O)c1ccc([C@@H](CC2CCCC2)C(=O)Nc2cnc(-c3noc(N)n3)cn2)cc1Cl [Example 17, N-[5-(5-Amino-[1,2,4]oxadiazol-3-yl)-pyrazin-2-yl]-2(R)-(3-chloro-4-methanesulfonyl-phenyl)-3-cyclopentyl-propionamide] | statistically significant (p≦0.05) decrease in blood glucose
97 to 101 | CS(=O)(=O)c1ccc([C@@H](CC2CCCC2)C(=O)Nc2cnc(-c3ccoc3)cn2)cc1Cl [Example 78, 2(R)-(3-Chloro-4-methanesulfonyl-phenyl)-3-cyclopentyl-N-(5-furan-3-yl-pyrazin-2-yl)-propionamide] | statistically significant (p≦0.05) decrease in blood glucose
